Molecules are shown by their SMILES. Calls of active or inactive are those of the source.

The values that follow come from ChEMBL document CHEMBL3991601, “The target landscape of clinical kinase drugs” (Science, 2017).

In assay [1] the target is cAMP-dependent protein kinase catalytic subunit gamma (Homo sapiens, UniProt P22612).
In assay [2] the target is T1, Calcium/calmodulin-dependent protein kinase type IV (Homo sapiens, UniProt Q16566).
T1 sequence (Q16566 whole entry): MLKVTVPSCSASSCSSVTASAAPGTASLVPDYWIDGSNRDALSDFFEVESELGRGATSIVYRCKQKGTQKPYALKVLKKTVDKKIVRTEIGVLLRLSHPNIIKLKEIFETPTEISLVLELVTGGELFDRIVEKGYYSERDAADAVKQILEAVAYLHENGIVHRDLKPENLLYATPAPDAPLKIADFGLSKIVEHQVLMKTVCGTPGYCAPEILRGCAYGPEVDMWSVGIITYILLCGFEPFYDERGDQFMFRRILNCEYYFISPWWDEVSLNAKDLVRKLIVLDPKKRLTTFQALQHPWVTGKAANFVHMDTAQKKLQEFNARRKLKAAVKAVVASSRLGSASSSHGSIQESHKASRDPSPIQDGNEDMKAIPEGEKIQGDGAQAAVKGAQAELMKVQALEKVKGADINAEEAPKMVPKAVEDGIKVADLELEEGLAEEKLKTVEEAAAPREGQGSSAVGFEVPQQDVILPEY

Assay [3] addresses cAMP-dependent protein kinase type II-alpha regulatory subunit (Homo sapiens, UniProt P13861).
Assay [4] concerns the target T2, AarF domain-containing protein kinase 1 (Homo sapiens, UniProt Q86TW2).
T2 sequence (Q86TW2 whole entry): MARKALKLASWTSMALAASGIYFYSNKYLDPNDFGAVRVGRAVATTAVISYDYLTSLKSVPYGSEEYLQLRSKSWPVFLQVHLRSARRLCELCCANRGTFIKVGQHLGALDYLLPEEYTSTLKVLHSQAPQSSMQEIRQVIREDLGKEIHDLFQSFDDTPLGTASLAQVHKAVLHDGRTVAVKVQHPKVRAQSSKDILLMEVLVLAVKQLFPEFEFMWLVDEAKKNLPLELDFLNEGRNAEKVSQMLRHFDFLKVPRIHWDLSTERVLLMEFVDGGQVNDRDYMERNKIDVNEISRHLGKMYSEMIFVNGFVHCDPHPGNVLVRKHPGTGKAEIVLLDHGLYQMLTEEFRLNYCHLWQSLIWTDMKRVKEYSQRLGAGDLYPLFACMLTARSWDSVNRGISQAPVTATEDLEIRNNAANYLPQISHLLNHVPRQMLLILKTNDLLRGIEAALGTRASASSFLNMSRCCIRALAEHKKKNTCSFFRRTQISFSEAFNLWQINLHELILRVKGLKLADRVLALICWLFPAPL

Assay [5] addresses Serine/threonine-protein kinase B-raf (Homo sapiens, UniProt P15056).
Assay [6] has as its target Chromodomain-helicase-DNA-binding protein 4 (Homo sapiens, UniProt Q14839).
The next assay concerns the target T3, Aurora kinase A (Homo sapiens, UniProt O14965).
T3 sequence (O14965 whole entry): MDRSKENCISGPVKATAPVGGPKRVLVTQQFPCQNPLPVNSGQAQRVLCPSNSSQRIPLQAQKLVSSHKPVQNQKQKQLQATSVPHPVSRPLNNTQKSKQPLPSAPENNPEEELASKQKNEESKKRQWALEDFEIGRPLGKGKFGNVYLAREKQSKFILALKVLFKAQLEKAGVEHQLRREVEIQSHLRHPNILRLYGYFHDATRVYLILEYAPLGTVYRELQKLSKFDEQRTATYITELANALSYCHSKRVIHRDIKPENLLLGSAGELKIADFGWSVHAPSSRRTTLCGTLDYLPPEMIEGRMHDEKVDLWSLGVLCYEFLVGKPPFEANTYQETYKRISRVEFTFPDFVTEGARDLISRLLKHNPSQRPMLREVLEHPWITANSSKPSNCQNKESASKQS

Assay [7] has as its target T4, Phenylalanine--tRNA ligase beta subunit (Homo sapiens, UniProt Q9NSD9).
T4 sequence (Q9NSD9 whole entry): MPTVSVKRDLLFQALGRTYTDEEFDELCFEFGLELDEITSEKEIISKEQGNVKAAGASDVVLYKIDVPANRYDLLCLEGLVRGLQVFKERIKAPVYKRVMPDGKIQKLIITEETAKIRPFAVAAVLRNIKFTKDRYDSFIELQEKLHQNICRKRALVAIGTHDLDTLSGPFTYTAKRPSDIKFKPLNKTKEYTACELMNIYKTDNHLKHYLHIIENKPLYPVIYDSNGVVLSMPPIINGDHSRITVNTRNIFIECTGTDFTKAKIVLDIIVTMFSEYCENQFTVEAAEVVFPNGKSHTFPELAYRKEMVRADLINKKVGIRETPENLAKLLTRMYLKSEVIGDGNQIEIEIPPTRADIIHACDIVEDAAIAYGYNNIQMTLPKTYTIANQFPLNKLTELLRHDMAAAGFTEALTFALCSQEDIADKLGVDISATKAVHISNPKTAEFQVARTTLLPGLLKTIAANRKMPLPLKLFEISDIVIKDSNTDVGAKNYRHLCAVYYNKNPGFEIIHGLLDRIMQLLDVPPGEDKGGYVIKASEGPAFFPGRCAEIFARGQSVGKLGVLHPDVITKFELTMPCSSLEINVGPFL
Note: in the data inactive means no Kd found up to 30 µM.

Serine/threonine-protein kinase B-raf, sequence (P15056 whole entry): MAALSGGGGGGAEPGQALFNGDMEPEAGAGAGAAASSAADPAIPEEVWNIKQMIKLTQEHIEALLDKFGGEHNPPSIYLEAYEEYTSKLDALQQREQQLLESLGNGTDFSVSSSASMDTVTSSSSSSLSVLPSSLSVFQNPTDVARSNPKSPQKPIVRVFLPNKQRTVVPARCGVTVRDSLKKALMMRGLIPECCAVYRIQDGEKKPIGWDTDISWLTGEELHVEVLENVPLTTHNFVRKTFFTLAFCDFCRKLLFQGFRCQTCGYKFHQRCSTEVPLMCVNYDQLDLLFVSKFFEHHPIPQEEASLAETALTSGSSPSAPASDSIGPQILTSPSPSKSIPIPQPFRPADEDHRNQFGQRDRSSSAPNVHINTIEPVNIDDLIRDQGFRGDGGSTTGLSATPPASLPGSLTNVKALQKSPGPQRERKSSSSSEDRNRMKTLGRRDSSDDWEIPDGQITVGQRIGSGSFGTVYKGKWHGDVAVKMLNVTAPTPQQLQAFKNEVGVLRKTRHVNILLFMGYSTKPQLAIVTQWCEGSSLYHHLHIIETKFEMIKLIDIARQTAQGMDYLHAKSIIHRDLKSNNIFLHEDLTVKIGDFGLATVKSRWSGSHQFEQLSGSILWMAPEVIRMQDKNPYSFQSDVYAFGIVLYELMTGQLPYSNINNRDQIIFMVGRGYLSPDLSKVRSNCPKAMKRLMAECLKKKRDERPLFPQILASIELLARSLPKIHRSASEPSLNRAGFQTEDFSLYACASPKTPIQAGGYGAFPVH
Chromodomain-helicase-DNA-binding protein 4, sequence (Q14839 whole entry): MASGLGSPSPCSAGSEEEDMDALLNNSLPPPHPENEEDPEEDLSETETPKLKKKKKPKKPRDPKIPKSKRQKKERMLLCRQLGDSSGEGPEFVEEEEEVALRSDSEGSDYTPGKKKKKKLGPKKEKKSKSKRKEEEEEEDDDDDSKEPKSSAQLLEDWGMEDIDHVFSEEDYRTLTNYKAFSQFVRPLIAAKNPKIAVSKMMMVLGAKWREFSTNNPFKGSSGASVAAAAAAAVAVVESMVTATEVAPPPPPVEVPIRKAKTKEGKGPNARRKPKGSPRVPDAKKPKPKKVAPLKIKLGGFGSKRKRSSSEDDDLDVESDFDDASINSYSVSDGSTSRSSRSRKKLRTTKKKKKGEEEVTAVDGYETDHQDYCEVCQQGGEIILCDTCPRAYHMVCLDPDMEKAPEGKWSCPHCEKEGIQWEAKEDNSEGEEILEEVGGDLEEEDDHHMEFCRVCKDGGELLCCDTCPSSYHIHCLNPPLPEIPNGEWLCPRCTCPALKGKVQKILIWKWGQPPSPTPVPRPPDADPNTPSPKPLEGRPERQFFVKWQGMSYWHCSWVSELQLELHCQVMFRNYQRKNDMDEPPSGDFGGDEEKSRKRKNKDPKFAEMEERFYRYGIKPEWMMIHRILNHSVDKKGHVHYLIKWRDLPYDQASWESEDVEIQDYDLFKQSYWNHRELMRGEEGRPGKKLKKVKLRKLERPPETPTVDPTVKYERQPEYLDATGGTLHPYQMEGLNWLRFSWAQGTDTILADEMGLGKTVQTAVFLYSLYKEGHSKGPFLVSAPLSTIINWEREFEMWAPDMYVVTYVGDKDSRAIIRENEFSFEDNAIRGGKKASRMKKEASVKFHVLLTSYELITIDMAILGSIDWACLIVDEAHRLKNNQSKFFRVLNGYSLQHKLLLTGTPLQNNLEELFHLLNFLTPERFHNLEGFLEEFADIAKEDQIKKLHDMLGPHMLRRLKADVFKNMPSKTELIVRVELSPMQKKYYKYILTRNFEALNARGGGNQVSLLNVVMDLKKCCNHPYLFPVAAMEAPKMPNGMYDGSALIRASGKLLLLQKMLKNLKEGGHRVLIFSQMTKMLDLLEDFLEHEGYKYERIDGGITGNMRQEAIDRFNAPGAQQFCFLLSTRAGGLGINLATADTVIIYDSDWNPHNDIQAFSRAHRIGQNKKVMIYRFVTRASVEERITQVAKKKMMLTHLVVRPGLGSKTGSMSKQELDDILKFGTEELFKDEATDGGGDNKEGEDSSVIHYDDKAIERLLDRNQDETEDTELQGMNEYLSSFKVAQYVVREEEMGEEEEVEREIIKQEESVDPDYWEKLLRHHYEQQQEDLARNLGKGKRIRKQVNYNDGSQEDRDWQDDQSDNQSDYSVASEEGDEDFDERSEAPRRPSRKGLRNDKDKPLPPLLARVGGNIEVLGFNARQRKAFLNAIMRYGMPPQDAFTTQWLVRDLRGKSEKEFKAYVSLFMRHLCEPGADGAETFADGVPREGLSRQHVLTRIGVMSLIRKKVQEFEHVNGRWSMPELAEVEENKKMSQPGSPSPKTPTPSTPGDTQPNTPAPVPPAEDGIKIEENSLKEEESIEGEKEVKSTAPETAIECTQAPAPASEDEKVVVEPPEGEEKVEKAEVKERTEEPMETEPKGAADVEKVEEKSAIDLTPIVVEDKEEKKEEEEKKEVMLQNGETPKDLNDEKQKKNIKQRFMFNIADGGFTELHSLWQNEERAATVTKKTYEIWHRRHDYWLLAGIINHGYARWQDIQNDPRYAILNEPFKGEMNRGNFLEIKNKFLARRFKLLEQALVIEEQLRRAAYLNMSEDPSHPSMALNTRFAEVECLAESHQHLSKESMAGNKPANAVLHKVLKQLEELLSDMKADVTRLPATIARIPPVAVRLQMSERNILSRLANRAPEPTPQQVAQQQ
cAMP-dependent protein kinase catalytic subunit gamma, sequence (P22612 whole entry): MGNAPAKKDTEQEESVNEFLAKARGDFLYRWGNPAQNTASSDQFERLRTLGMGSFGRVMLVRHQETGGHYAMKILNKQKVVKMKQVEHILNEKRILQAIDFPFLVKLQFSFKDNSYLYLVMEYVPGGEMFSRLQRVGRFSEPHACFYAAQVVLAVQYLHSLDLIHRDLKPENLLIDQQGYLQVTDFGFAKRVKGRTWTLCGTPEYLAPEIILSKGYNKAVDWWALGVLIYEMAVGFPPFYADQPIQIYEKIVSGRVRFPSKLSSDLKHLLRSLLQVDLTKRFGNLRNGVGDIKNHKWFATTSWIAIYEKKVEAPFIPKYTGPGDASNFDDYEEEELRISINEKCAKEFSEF
cAMP-dependent protein kinase type II-alpha regulatory subunit, sequence (P13861 whole entry, the tested form may be a part): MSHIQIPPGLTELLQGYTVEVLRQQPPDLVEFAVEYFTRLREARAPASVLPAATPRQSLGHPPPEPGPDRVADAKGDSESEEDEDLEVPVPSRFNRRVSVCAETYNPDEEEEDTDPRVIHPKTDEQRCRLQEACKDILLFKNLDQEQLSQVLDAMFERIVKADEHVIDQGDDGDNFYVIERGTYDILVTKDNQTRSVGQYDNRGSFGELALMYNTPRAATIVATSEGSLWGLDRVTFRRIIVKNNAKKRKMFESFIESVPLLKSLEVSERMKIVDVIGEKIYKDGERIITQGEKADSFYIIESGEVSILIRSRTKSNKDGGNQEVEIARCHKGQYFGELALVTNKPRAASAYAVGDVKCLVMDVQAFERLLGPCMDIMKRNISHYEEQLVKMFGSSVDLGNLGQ

Turning to `C=CCn1c(=O)c2cnc(Nc3ccc(N4CCN(C)CC4)cc3)nc2n1-c1cccc(C(C)(C)O)n1` [ADAVOSERTIB], the Kd is > 30 µM (inactive) in assay [1]; > 30 µM (inactive) in assay [2]; > 30 µM (inactive) in assay [3]; 1.9 µM (active) in assay [4]; > 30 µM (inactive) in assay [5]; > 30 µM (inactive) in assay [6]. The Kd (on Aurora kinase A; in assay [7]) was > 30 µM (inactive) each time.
On to `COCCN1CCN(Cc2ccc(-c3n[nH]c4c3C(=O)c3c(NC(=O)NN5CCOCC5)cccc3-4)cc2)CC1` [RGB-286638], for which the Kd in assay [1], in assay [2], in assay [3], in assay [4], in assay [5] and in assay [6] was > 30 µM (inactive) each time. In addition, the Kd (at Aurora kinase A; in assay [7]) was > 30 µM (inactive) each time.
For `COc1cccc2cc(-c3nc([C@H]4CC[C@H](C(=O)O)CC4)n4ncnc(N)c34)[nH]c12` [OSI-027], the Kd in assay [1], in assay [2], in assay [3], in assay [4], in assay [5] and in assay [6] was > 30 µM (inactive) in each case. Besides, the Kd (at Aurora kinase A; in assay [7]) was > 30 µM (inactive) in each case.
Take `CN1CCN(c2nc(C3=C(c4c[nH]c5ccccc45)C(=O)NC3=O)c3ccccc3n2)CC1` [SOTRASTAURIN]: the Kd in assay [1], in assay [2], in assay [3], in assay [4], in assay [5] and in assay [6] was > 30 µM (inactive) throughout. The Kd (on Aurora kinase A; in assay [7]) was > 30 µM (inactive) in each case.
As for `CCN1CCN(Cc2ccc(Nc3ncc(F)c(-c4cc(F)c5nc(C)n(C(C)C)c5c4)n3)nc2)CC1` [ABEMACICLIB], the Kd in assay [1] is > 30 µM (inactive); in assay [2], > 30 µM (inactive); in assay [3], > 30 µM (inactive); in assay [4] it was 0.04 µM (active); in assay [5], > 30 µM (inactive); in assay [6], > 30 µM (inactive). The Kd (on Aurora kinase A; in assay [7]) was > 30 µM (inactive) in each case.
Consider `COc1ccc(-c2ccc3ncc4c(c3c2)n(-c2ccc(N3CCNCC3)c(C(F)(F)F)c2)c(=O)n4C)cn1` [BGT-226 FREE BASE], for which the Kd in assay [1], in assay [2], in assay [3], in assay [4], in assay [5] and in assay [6] was > 30 µM (inactive) throughout. Further, the Kd (at Aurora kinase A; in assay [7]) was > 30 µM (inactive) each time.
Regarding `CNC(=O)c1ccc(Nc2ncc(C(F)(F)F)c(NCc3nccnc3N(C)S(C)(=O)=O)n2)cc1` [DEFACTINIB], the Kd in assay [1], in assay [2], in assay [3], in assay [4], in assay [5] and in assay [6] was > 30 µM (inactive) each time. Besides, the Kd is 0.622 µM (active) on Aurora kinase A and > 30 µM (inactive) in assay [7].
As for `Cc1c(Cn2c(C)nc3c(C(=O)O)cc(N4CCOCC4)cc32)cccc1C(F)(F)F` [GSK-2636771], the Kd in assay [1], in assay [2], in assay [3], in assay [4], in assay [5] and in assay [6] was > 30 µM (inactive) each time. The Kd (at Aurora kinase A; in assay [7]) was > 30 µM (inactive) in each case.
Consider `Cc1cc(C(=O)Nc2cc(Oc3ccc4nc(NC(=O)C5CC5)cn4n3)ccc2C)n(C)n1` [TAK-593], for which the Kd in assay [1], in assay [2], in assay [3], in assay [4], in assay [5] and in assay [6] was > 30 µM (inactive) in each case. Besides, the Kd (on Aurora kinase A; in assay [7]) was > 30 µM (inactive) in each case.
For `C[C@@H]1COC(Nc2ccc3ncnc(Nc4ccc(OCc5nccs5)c(Cl)c4)c3c2)=N1` [VARLITINIB], the Kd in assay [1], in assay [2], in assay [3], in assay [4], in assay [5] and in assay [6] was > 30 µM (inactive) throughout. The Kd (on Aurora kinase A; in assay [7]) was > 30 µM (inactive) each time.
Consider `CCc1cc2c(cc1N1CCC(N3CCOCC3)CC1)C(C)(C)c1[nH]c3cc(C#N)ccc3c1C2=O` [ALECTINIB], for which the Kd in assay [1], in assay [2], in assay [3], in assay [4], in assay [5] and in assay [6] was > 30 µM (inactive) throughout. In addition, the Kd (at Aurora kinase A; in assay [7]) was > 30 µM (inactive) each time.
For the compound `FC(F)(F)c1ccc(CNc2ccc(Cc3c[nH]c4ncc(Cl)cc34)cn2)cn1` [PEXIDARTINIB], the Kd in assay [1], in assay [2], in assay [3], in assay [4], in assay [5] and in assay [6] was > 30 µM (inactive) each time. In addition, the Kd (at Aurora kinase A; in assay [7]) was > 30 µM (inactive) throughout.
`CC[C@@](C)(Nc1ccnc(-c2c[nH]c3ncccc23)n1)C(=O)NCC(F)(F)F` [DECERNOTINIB]: the Kd (in assay [1]; in assay [2]; in assay [4]; in assay [5]; in assay [6]; on Aurora kinase A) was > 30 µM (inactive) in each case. The Kd in assay [7] was > 30 µM (inactive).
Consider `COc1cc(F)c(F)c(Nc2ccc(I)cc2F)c1NS(=O)(=O)C1(C[C@H](O)CO)CC1` [REFAMETINIB], for which the Kd was > 30 µM (inactive) in assay [1]; > 30 µM (inactive) in assay [2]; > 30 µM (inactive) in assay [3]; 0.778 µM in assay [4]; > 30 µM (inactive) in assay [5]; > 30 µM (inactive) on Aurora kinase A. Moreover, the Kd in assay [7] is > 30 µM (inactive).

Broadly, the Kd is the free concentration of one partner at which half of the binding sites on the other are occupied at equilibrium, for simple one-to-one binding.
